Source: ChEMBL document CHEMBL1125876, “Conformationally defined neurotransmitter analogues. Selective inhibition of glutamate uptake by one pyrrolidine-2,4-dicarboxylate diastereomer” (1991)

Columns and labels:
Set-up in all cases: scale not given: the % may be the effect or the level left
[1] = molecular target: T1, Glutamate NMDA receptor (Rattus norvegicus) (UniProt P35439+Q00959+Q00960+Q00961+Q62645+Q8VHN2+Q9R1M7); assay: Compound tested for its ability to inhibit [3H]- -L-Glu binding to N-methyl-D-aspartate glutamate receptor at the concentration of 100 uM; type: protein-complex assay
[2] = molecular target: Glutamate receptor ionotropic, kainate 2 (Rattus norvegicus) (UniProt P42260); assay: Compound tested for its ability to inhibit [3H]- KA binding to ionotropic glutamate receptor kainate at the concentration of 100 uM
[3] = species: Rattus norvegicus; assay: Comparative inhibition of L-Glutamate uptake at the concentration of 5 uM of [3H]-L- glutamate radioligand; type: functional
[4] = molecular target: T1, Glutamate NMDA receptor (Rattus norvegicus); assay: Compound tested for its ability to inhibit [3H]- -L-Glu binding to N-methyl-D-aspartate glutamate receptor at the concentration of 20 uM; type: protein-complex assay

Chain of Glutamate receptor ionotropic, kainate 2 (Rattus norvegicus) (P42260 whole entry): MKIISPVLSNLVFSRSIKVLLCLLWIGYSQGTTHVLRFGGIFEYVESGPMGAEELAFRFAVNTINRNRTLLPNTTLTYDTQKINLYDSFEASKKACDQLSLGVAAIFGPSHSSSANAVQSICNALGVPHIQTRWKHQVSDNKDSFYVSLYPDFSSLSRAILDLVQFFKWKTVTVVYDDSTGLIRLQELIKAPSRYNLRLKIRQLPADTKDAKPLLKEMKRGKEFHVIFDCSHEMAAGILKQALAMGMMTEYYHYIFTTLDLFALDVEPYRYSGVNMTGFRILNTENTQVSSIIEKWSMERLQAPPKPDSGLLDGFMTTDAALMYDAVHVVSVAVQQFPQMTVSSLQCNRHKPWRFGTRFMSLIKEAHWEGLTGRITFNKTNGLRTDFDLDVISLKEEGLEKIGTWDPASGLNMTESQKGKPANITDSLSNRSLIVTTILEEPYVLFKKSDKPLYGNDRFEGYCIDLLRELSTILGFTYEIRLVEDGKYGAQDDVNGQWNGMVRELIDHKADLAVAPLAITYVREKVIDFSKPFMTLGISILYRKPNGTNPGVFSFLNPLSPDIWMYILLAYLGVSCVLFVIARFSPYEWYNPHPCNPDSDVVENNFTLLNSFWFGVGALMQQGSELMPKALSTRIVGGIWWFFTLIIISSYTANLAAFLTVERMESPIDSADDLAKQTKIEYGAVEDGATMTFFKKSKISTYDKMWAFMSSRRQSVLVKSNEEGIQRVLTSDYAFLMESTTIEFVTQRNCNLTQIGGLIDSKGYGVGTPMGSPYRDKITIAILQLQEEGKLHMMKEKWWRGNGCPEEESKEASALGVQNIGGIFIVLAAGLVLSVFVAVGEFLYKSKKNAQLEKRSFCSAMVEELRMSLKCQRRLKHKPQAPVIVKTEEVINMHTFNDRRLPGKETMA

Structure (SMILES) | Control [1] | Control [2] | Control [3] | Control [4]
O=C(O)[C@@H]1CN[C@H](C(=O)O)C1 | 89% | 100% | – | –
O=C(O)[C@H]1CN[C@H](C(=O)O)C1 | 87% | 102% | 45% | –
O=C(O)[C@H]1CN[C@@H](C(=O)O)C1 | 38% | 101% | – | 76%
O=C(O)[C@@H]1CN[C@@H](C(=O)O)C1 | 95% | 92% | – | –
N[C@H](CC(=O)O)C(=O)O [D-ASPARTATE] | – | – | 58% | –
CC(C)[C@H]1CN[C@H](C(=O)O)[C@H]1CC(=O)O [DIHYDROKAINATE] | – | – | 93% | –
